The values below come from patent publication US20250034211A1, “C-TERMINAL EXTENDED P53 ACTIVATOR CROSSLINKED PEPTIDOMIMETIC MACROCYCLES AGAINST MDM2/MDMX” (Merck Sharp & Dohme LLC, priority 2021, published 2025).

Structures are written as SMILES. Values after ≈ are worked out from the molar mass of the structure shown. *1 amine or outer side, *2 acyl side, *3 side chain or, on linkers, in order; H or OH if unused. Where a SMILES comes first, the peptide text is derived from it. Bridges are numbered along the chain shown (N, C = ends). [ ]: non-standard residue; d: D form. ξ: configuration not given here. ξαMeNle(6-ylidene) = CC(CCCC=[*:3])(N[*:1])C(=O)[*:2]; X1 = CC(CCCCCCC=[*:3])(N[*:1])C(=O)[*:2]; Lys(N3) = [N-]=[N+]=NCCCC[C@H](N)C(=O)O; R8 = C=CCCCCCC[C@@](C)(N)C(=O)O; ξαMeE = CC(N)(CCC(=O)O)C(=O)O; Cba = N[C@@H](CC1CCC1)C(=O)O; S5 = C=CCCC[C@](C)(N)C(=O)O; βAla = NCCC(=O)O

In general, Kd refers to a measure of binding affinity in units of concentration. In general, % inhibition refers to the change of the read-out against control, counted positive when it falls. A higher % inhibition goes with a strong effect. Broadly, the logD is lipophilicity at a set pH, counting ionised and neutral species. By solubility is commonly meant the dissolved amount per volume that the medium holds. Higher therefore signals much dissolved substance. By chromatographic logD is commonly meant a lipophilicity value derived from retention on a column. A lower chromatographic logD goes with a more hydrophilic compound.

In series [1] the test system is Jump-In T-REx CHO-K1 BLA cells. Description: Tetracycline beta-lactamase reporter gene assay (counter screen). It counts as cell-based. The protocol: Based on Jump-In™ T-REx™ CHO-K1 BLA cells and contain a stably integrated β-lactamase under the control of an inducible CMV promoter. Cells were seeded into a 384-well plate a density of 4000 cells per well. Cells were maintained in Dulbecco's Minimal Eagle Medium (DMEM) with 10% fetal bovine serum (FBS), Blasticidin and Penicillin/Streptomycin. The cells were incubated for 24 hours, followed by cell media removal and replacement with Opti-MEM either containing 10% FBS or 0% FBS. Peptides were then dispensed to each well using a liquid handler, ECHO 555 and incubated for 4/16 hours. Final working concentration of DMSO was 0.5%. β-Lactamase activity was detected using the ToxBLAzer Dual Screen (Invitrogen) as per manufacturer's instructions. Measurements were carried out using Envision multiplate reader (Perkin Elmer). Counter Screen activity was defined as the amount of 0-lactamase activity induced by tetracycline.
On the technique in general: In a reporter assay the amount or activity of a reporter protein is the signal.

Series [2] has as its system p53 (HCT116 cells stably transfected with a p53 responsive β-lactamase reporter). Description: p53 beta-lactamase reporter gene cellular functional assay. It counts as cell-based. As for the experimental part:
HCT116 cells were stably transfected with a p53 responsive β-lactamase reporter, and were seeded into a 384-well plate at a density of 8,000 cells per well. Cells were maintained in McCoy's 5A Medium with 10% fetal bovine serum ([…]), Blasticidin and Penicillin/Streptomycin. The cells were incubated overnight and followed by removal of cell growth media and replaced with Opti-MEM either containing 0% FBS or 10% FBS. Peptides were then dispensed to each well using a liquid handler, ECHO 555 and incubated for 4/16 hours. Final working concentration of dimethyl sulfoxide (DMSO) was 0.5%. β-Lactamase activity was detected using the ToxBLAzer Dual Screen (Invitrogen) as per manufacturer's instructions. Measurements were done using Envision multiplate reader (Perkin-Elmer). Maximum p53 activity was defined as the amount of β-lactamase activity induced by 50 μM azide-ATSP-7041 (stapled p53 peptide; Aileron Therapeutics, Inc.). This was determined as the highest amount of p53 activity induced by azide-ATSP-7041 by titration on HCT116 cells.

A further series has as its system HCT116 cells. Description: Lactate dehydrogenase release assay (LDH). It counts as cell-based. The protocol:
HCT116 cells were seeded into a 384-well plate at a density of 8000 cells per well. Cells were maintained in McCoy's 5A Medium with 10% fetal bovine serum (FBS), Blasticidin and Penicillin/Streptomycin. The cells were incubated overnight followed by the removal of cell media and the addition of Opti-MEM Medium without FBS. Cells were then treated with peptides for 4/16 hours in Opti-MEM either in 10% FBS or serum free. Final concentration of DMSO was 0.5%. Lactate dehydrogenase release was detected using CytoTox-ONE Homogenous Membrane Integrity Assay Kit (Promega) as per manufacturer's instructions. Measurements were carried out using Tecan plate reader. Maximum LDH release was defined as the amount of LDH released induced by the lytic peptide (iDNA79) and used to normalize the results.

Series [3] deals with T1, MDM2 (1-125; SEQ ID NO 14) (Homo sapiens, UniProt Q00987).
T1 construct: GST (N); His6 (internal); TEV cleavage site ENLYFQG (internal); made in house; host or cells: E. coli BL21 (DE3) Rosetta T1R
T1 sequence (Q00987 with tags, fused parts or gaps): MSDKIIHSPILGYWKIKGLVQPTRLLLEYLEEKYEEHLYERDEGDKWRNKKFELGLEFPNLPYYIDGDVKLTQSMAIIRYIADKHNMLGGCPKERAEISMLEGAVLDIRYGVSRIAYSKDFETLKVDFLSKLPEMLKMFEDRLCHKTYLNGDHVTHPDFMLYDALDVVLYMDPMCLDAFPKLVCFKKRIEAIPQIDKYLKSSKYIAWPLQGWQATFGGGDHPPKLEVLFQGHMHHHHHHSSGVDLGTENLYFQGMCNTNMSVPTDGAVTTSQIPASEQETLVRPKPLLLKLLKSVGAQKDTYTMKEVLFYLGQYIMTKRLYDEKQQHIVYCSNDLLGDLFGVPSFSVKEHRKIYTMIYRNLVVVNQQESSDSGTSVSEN
Description: MDM2 binding assay (fluorescence anisotropy competition, FP). As for the experimental part: [P] is the protein concentration (MDM2), [L] is the labeled peptide concentration, r is the anisotropy measured, r0 is the anisotropy of the free peptide, rb is the anisotropy of the MDM2-FAM-labeled peptide complex, Kd is the dissociation constant, [L]t is the total FAM labeled peptide concentration, and [P]t is the total MDM2 concentration. […] The competing molecules were then titrated against the complex of the FAM-labeled peptide and protein. Apparent Kd values were determined by fitting the experimental data to the equations shown below:
[L]st and [L]t denote labeled ligand and total unlabeled ligand input concentrations, respectively. Kd2 is the dissociation constant of the interaction between the unlabeled ligand and the protein. In all competition experiments, it is assumed that [P]t>[L]st, otherwise considerable amounts of free labeled ligand would always be present and would interfere with measurements. […] The FAM-labeled peptide was dissolved in dimethyl sulfoxide (DMSO) at 1 mM and diluted into experimental buffer. Readings were carried out with an Envision Multilabel Reader (PerkinElmer). […] All titrations were carried out in triplicate. Curve-fitting was carried out using Prism 4.0 (GraphPad). […] Negative control titrations of the ligands under investigation were also carried out with the fluorescently labeled peptide (in the absence of MDM2) to ensure no interactions were occurring between the ligands and the FAM-labeled peptide.

A further series in a line: Solubility (PBS, pH 7). As to conditions: pH 7.

Consider `CC(=O)N[C@@H](CCCCN=[N+]=[N-])C(=O)NCCC(=O)N[C@@H](CC(C)C)C(=O)N[C@H](C(=O)N[C@@H](Cc1ccccc1)C(=O)N[C@]1(C)CCCCCCC=CCCC[C@@](C)(C(=O)N[C@@H](C)C(=O)N[C@@H](C)C(=O)N[C@@H](C)C(=O)N[C@@H](C)C(=O)N[C@@H](C)C(=O)N[C@@H](C)C(N)=O)NC(=O)[C@H](CC2CCC2)NC(=O)[C@H](CCC(N)=O)NC(=O)[C@H](C)NC(=O)[C@H](Cc2c[nH]c3ccccc23)NC(=O)[C@H](Cc2ccc(O)cc2)NC(=O)[C@H](CCC(=O)O)NC1=O)[C@@H](C)O` [Macrocycle 2, Ac-K(N3)-betaAla-L-T-F-X1a-E-Y-W-A-Q-Cba-X2a-AAAAAA-NH2 (olefin staple from X1a to X2a)] (Ac-[Lys(N3)][βAla]LTF[R8]EYWAQ[Cba][S5]AAAAAA-NH2; staple 6-13), for which the EC50 is above 50 µM in series [1] (0% FBS, 4 h); above 50 µM in series [1] (10% FBS, 16 h); 0.143 µM in series [2] (0% serum at 4 hours); 0.749 µM in series [2] (10% serum at 16 hours); above 50 µM in the series with HCT116 cells (0% FBS, 4 h); above 50 µM in the series with HCT116 cells (10% FBS, 16 h). Moreover, in the series on HCT116 (read-out: cellular efficacy in cell proliferation HTC116 p53 positive control cell lines), the EC50 turned out to be 0.57 µM. Moreover, in series [2] (versus Reference Macrocycle 1, both 0% serum at 4 hours and 10% serum at 16 hours), the “fold improvement of cellular activity in p53 cellular assay” value is around 3.5 fold. The “HCT116 proliferation % Max” value with HCT116 (72 h, 10% serum) was found to be 89%. For the same compound, in series [3], the affinity, expressed as Kd, was 0.0094 µM. Also, in the series with p53 null Ca Ski (72 h, 10% serum), the “p53 null Ca Ski proliferation % Max” value was determined as 29%. In addition, the “% inhibition at maximum concentration in p53 null negative control cell line” value with p53 null Ca Ski (maximum assay concentration (50 uM)) is 29%.
`CC(=O)N[C@@H](CCCCN=[N+]=[N-])C(=O)NCCC(=O)N[C@@H](CC(C)C)C(=O)N[C@H](C(=O)N[C@@H](Cc1ccccc1)C(=O)N[C@]1(C)CCCCCCC=CCCC[C@@](C)(C(=O)N[C@@H](C)C(=O)N[C@@H](C)C(=O)N[C@@H](Cc2ccccc2)C(=O)N[C@@H](C)C(=O)N[C@@H](C)C(=O)N[C@H](Cc2ccccc2)C(N)=O)NC(=O)[C@H](CC2CCC2)NC(=O)[C@H](CCC(N)=O)NC(=O)[C@H](C)NC(=O)[C@H](Cc2c[nH]c3ccccc23)NC(=O)[C@H](Cc2ccc(O)cc2)NC(=O)[C@H](CCC(=O)O)NC1=O)[C@@H](C)O` [Macrocycle 5, Ac-K(N3)-betaAla-L-T-F-X1a-E-Y-W-A-Q-Cba-X2a-AAFAA-(D-Phe)-NH2(olefinstaple from X1ato X2a)] (Ac-[Lys(N3)][βAla]LTF[R8]EYWAQ[Cba][S5]AAFAA[dF]-NH2; staple 6-13) showed a logD in the series “HPLC LogD” of 4.12. Besides, the EC50 in series [1] (0% FBS, 4 h) is above 50 µM; in series [1] (10% FBS, 16 h), above 50 µM; in the series with HCT116 cells (0% FBS, 4 h), above 50 µM; in the series with HCT116 cells (10% FBS, 16 h) it was above 50 µM. In the series “Solubility (PBS, pH 7)” (PBS), this compound returned a solubility of 9 µM (≈ 20.9 µg/mL). Also, in series [3], the Kd amounted to 0.056 µM.
Consider `CC(=O)N[C@@H](CCCCN=[N+]=[N-])C(=O)NCCC(=O)N[C@@H](CC(C)C)C(=O)N[C@H](C(=O)N[C@@H](Cc1ccccc1)C(=O)N[C@]1(C)CCCCCCC=CCCC[C@@](C)(C(=O)N[C@@H](C)C(=O)N[C@@H](C)C(=O)N[C@@H](C)C(=O)N[C@@H](C)C(=O)N[C@@H](C)C(=O)N[C@@H](Cc2ccccc2)C(N)=O)NC(=O)[C@H](CC2CCC2)NC(=O)[C@H](CCC(N)=O)NC(=O)[C@H](C)NC(=O)[C@H](Cc2c[nH]c3ccccc23)NC(=O)[C@H](Cc2ccc(O)cc2)NC(=O)[C@H](CCC(=O)O)NC1=O)[C@@H](C)O` [Macrocycle 6, Ac-K(N3)-betaAla-L-T-F-X1a-E-Y-W-A-Q-Cba-X2a-AAAAAF-NH2 (olefin staple from X1a to X2a)] (Ac-[Lys(N3)][βAla]LTF[R8]EYWAQ[Cba][S5]AAAAAF-NH2; staple 6-13), for which the EC50 in series [1] (0% FBS, 4 h) was above 50 µM; in series [1] (10% FBS, 16 h), above 50 µM; in the series with HCT116 cells (0% FBS, 4 h) it was above 50 µM; in the series on HCT116 cells (10% FBS, 16 h), above 50 µM. In series [3], this compound displayed a Kd of 0.0021 µM.
Compound `CC(=O)N[C@@H](CCCCN=[N+]=[N-])C(=O)NCCC(=O)N[C@@H](CC(C)C)C(=O)N[C@H](C(=O)N[C@@H](Cc1ccccc1)C(=O)N[C@]1(C)CCCCCCC=CCCC[C@@](C)(C(=O)N[C@@H](C)C(=O)N[C@@H](C)C(=O)N[C@@H](Cc2ccccc2)C(=O)N[C@@H](C)C(=O)N[C@@H](C)C(=O)N[C@H](C)C(N)=O)NC(=O)[C@H](CC2CCC2)NC(=O)[C@H](CCC(N)=O)NC(=O)[C@H](C)NC(=O)[C@H](Cc2c[nH]c3ccccc23)NC(=O)[C@H](Cc2ccc(O)cc2)NC(=O)[C@H](CCC(=O)O)NC1=O)[C@@H](C)O` [Macrocycle 7, Ac-K(N3)-betaAla-L-T-F-X1a-E-Y-W-A-Q-Cba-X2a-AAFAA-(D-Ala)-NH2(olefinstaple from X1ato X2a)] (Ac-[Lys(N3)][βAla]LTF[R8]EYWAQ[Cba][S5]AAFAA[dA]-NH2; staple 6-13) showed a logD in “HPLC LogD” of 3.59. The EC50 in series [1] (0% FBS, 4 h) was above 50 µM; in series [1] (10% FBS, 16 h), above 50 µM; in the series with HCT116 cells (0% FBS, 4 h), above 50 µM; with HCT116 cells (10% FBS, 16 h) it was above 50 µM. The compound further registered a solubility in the series “Solubility (PBS, pH 7)” (PBS) of 2 µM (≈ 4.49 µg/mL). This compound gave a Kd in series [3] of 0.0042 µM.
In turn, `CC(=O)N[C@@H](CCCCN=[N+]=[N-])C(=O)NCCC(=O)N[C@@H](CC(C)C)C(=O)N[C@H](C(=O)N[C@@H](Cc1ccccc1)C(=O)NC1(C)CCCCCCC=CCCCC(C)(C(=O)N[C@@H](C)C(=O)N[C@@H](C)C(=O)N[C@@H](Cc2ccccc2)C(=O)N[C@@H](C)C(=O)NC(C)(CCC(=O)O)C(=O)N[C@@H](Cc2ccccc2)C(N)=O)NC(=O)[C@H](CC2CCC2)NC(=O)[C@H](CCC(N)=O)NC(=O)[C@H](C)NC(=O)[C@H](Cc2c[nH]c3ccccc23)NC(=O)[C@H](Cc2ccc(O)cc2)NC(=O)[C@H](CCC(=O)O)NC1=O)[C@@H](C)O` (stereo partly drawn) [Macrocycle 9, Ac-K(N3)-betaAla-L-T-F-X1a-E-Y-W-A-Q-Cba-X2a-AAFA-(alpha-methyl-Glu)-F-NH2(olefinstaple from X1ato X2a)] (Ac-[Lys(N3)][βAla]LTF[X1]EYWAQ[Cba][ξαMeNle(6-ylidene)]AAFA[ξαMeE]F-NH2; staple 6-13) had a chromatographic logD in “HPLC LogD” of 2.93. Moreover, the EC50 was above 50 µM in series [1] (0% FBS, 4 h) and above 50 µM in series [1] (10% FBS, 16 h). Besides, the concentration in solution in “Solubility (PBS, pH 7)” (solubility) was 153 µM (≈ 366 µg/mL).
